# From a melting point compilation (Tetko et al.; mined from patent text by program, amines drawn as free bases though some values may be those of a salt)
row,Compound,melting point [°C]
1,CC(C)C[C@@H](CC=O)NC(=O)[C@H](Cc1c[nH]cn1)NC(=O)[C@H](Cc1cccc2ccccc12)NC(=O)OCc1ccccc1,153 to 156
2,CC(C)[C@H](N=Cc1cccc(-c2ccccc2)c1O)C(=O)O,140 to 141
3,O[C@@H]1CN=C(c2ccoc2)O[C@H]1c1ccccc1 (racemic),160
4,O=C(O)C1=NOC2(CCC(C3CCCCC3)CC2)C1 (stereo not drawn),139 to 142
5,CCS(=O)c1c(C#N)nn(-c2c(Cl)cc(C(F)(F)F)cc2Cl)c1N (stereo not drawn),173 to 174
6,CC(C(O)c1ccc(OC(=O)c2ccc(CN3CCOCC3)cc2)cc1)N1CCC(O)(c2ccccc2)CC1 (stereo not drawn),172 to 173
7,CCC(C)c1ccc(NS(=O)(=O)c2ccc(N3CCNC3=O)cc2)cc1 (stereo not drawn),157 to 159
8,CC1(C)CC(C)(C)CC(CCC(=O)O)(NC(=O)CCl)C1,130 to 131
9,COc1cccc(CNC(=O)c2nc3ccc(-c4ccccc4)cc3c(=O)[nH]2)c1,202 to 204
10,COC(=O)/C=C/C1=C(C)C2(CCC1(C)C)SCCS2,79.5 to 88.1
11,COc1ccc(C2SCCCS2)cc1OC,99 to 101
12,CN1CCC(Oc2cnccn2)(c2ccccc2)CC1,115 to 116
13,CN1C(C(=O)Nc2nc3c(s2)CCCC3)=C(O)c2ccc3ccccc3c2S1(=O)=O,255 to 257
14,CCCCCCCC/C=C\CCCCCCCC(O)CCCNC(=O)CCNC(C)=O (stereo not drawn),103 to 108
15,CCCN(CCC)Cc1coc(-c2ncn3c2CN(C)C(=O)c2c(Cl)cccc2-3)n1,105 to 107
16,COc1ccc(CNCCCOc2ccc(S(=O)(=O)c3c(C(C)C)cn4ccccc34)cc2)cc1OC,109 to 111
17,CCCCCOC1CCC(=O)N1 (stereo not drawn),42 to 43
18,CN(C)CCSC1=Nc2ccc(Br)cc2C(c2ccccc2F)=NC1,105 to 108
19,CC(=O)OCC1CCCn2c(c(C3=C(c4cn(C)c5ccccc45)C(=O)OC3=O)c3ccccc32)C1 (stereo not drawn),164 to 166
20,O=C1CC[C@H]2CC3(C=C[C@@H]2C1)OCCO3 (relative stereo),58 to 59
21,CCOc1cc([N+](=O)[O-])c(C)c(C)c1[N+](=O)[O-],64 to 66
22,CCOC(=O)CCC1OC(n2cc(CC)c(=O)[nH]c2=O)CC1OC(C)=O (stereo not drawn),137 to 138
23,NC(=O)c1ccc(-c2ccc3[nH]c(=O)ccc3c2)cc1,> 320
24,CCC(=O)N1CC(=O)C2=C(C1)CN1NC(N3CCOCC3)=NC1=N2,278 to 280
25,"CCCCCCCOc1ccc(C2CCC(=O)O2)cc1 (single isomer, unassigned)",44
26,CCCCCCCCCCCCCCCCOC(=O)c1ccc(-c2ncc[nH]2)nc1,97 to 98

row,Compound,melting point [°C]
1,COc1cccc(N)c1C#N,143 to 146
2,CCCCOc1nc(O)ns1,62
3,COC(=O)Nc1ccc(N)c(NCCO)c1,240 to 242
4,COC(=O)c1ccc(-c2ccc(-c3ccccc3)c(-c3ccc4c(c3)C(C)(C)CCC4(C)C)c2)c(OC)c1,144 to 146
5,CCOc1ccc(OCC(=O)OC(C)(C)C)c2c1C(=O)N(CSc1nnnn1-c1ccccc1)S2(=O)=O,110 to 112
6,CC(=O)CCN(Cc1ccccc1)Cc1ccccc1,58 to 59
7,COC(=O)c1ccc(OC2=C3N=C4CCCCC4=C3C(Cc3ccc(OC)cc3)C=C2)o1 (stereo not drawn),79 to 80
8,NS(=O)(=O)NC(=O)NCCCCC1CCSS1 (stereo not drawn),123 to 125
9,CCCCNC(=O)Nc1ccccc1C(=O)NCC1CCN(C(c2ccccc2)c2ccccc2)CC1,197 to 198
10,O=S(=O)(Oc1ccc(C2(c3ccc(OS(=O)(=O)c4ccccc4)cc3)c3ccccc3-c3ccccc32)cc1)c1ccccc1,225 to 226
11,COc1cc(-c2cc(O)c(SCCc3ccccc3)c(=O)o2)ccc1OCc1ccccc1,114 to 115
12,CC(C)N1C(=O)NC2(CCN(C(=O)OC(C)(C)C)CC2)C1=O,206 to 208
13,O=C(NO)[C@@H](CC(=O)N1CCOCC1)NS(=O)(=O)c1ccc(Oc2ccccc2)cc1,161 to 163
14,CCCc1nc(C(=O)C(C)C)c(C#N)[nH]1,90.5 to 91
15,N[C@]1(C(=O)O)[C@H]2[C@@H](C[C@H]1OCc1ccccc1)[C@@H]2C(=O)O,> 250
16,COc1ccc(C=CC(C)=O)cc1,74
17,COc1nc(C)nc(NC(=O)NS(=O)(=O)c2ccccc2C(=O)OCCCl)n1,167 to 170
18,CCC(NC(=O)c1c(NC(C)=O)c(NC(C)=O)cc2c1OCCO2)N1CCCCC1 (stereo not drawn),> 260
19,CCCC1CCC(C2Cc3c4c(c(F)c(F)c3O2)OCCC4)CC1 (stereo not drawn),96
20,O=C1CCC2(CC1)CC(=O)NC2=O,154
21,NC(=O)Oc1ccc2c(c1)[nH]c(=O)c1c3ccc(OC(N)=O)cc3oc21,215 to 220
22,Cc1cncnc1N1CCC(C(N)=O)CC1,182 to 184
23,O=C(CN1CCOCC1)Oc1ccc2c(=O)c3c(oc2c1)C(=Cc1ccccc1)CC3,204 to 206
24,CC(CNc1c(C(=O)O)cccc1[N+](=O)[O-])NCc1ccccc1 (stereo not drawn),227
25,Cc1nc(-n2ccc3c(O)cccc3c2=O)sc1C(=O)NCc1ccccc1,218 to 221

# Now from value to compound:
row,melting point [°C],Compound
1,113,CCCn1c2cc(OCc3ccccc3)ccc2c2ccnc(C)c21
2,132 to 138,C=CCc1cc2c(c(CC=C)c1O)N(CC=Cc1ccccc1)C(=O)CC2
3,103 to 106,CC1Cc2cc(-n3ccnc3)ccc2C1=O (stereo not drawn)
4,215 to 217,COc1cc2ncnc(N3CCN(C(=O)Nc4ccc(CC(C)C)cc4)CC3)c2cc1OC
5,102 to 104,CCOC(=O)C1C(N(C)C(=O)C(F)(F)F)C(=O)N1c1ccc(OC)cc1 (stereo not drawn)
6,205,Cc1cc(C)nc(NC#N)n1
7,155 to 156,COc1ccc(-n2c(-c3ccc(S(N)(=O)=O)cc3)cc(C)c2Cl)cc1
8,123 to 125,ON=C1CC(c2ccccc2)c2ccccc21 (stereo not drawn)
9,103,CSCN(C)C(=O)Nc1ccc(Cl)c(Cl)c1
10,167 to 180,O=C(COc1ccc(Cl)cc1Cl)Nc1ccnn1-c1c(Cl)cc(C(F)(F)F)cc1Cl
11,> 310,Cc1nn(C)c2[nH]c(=O)c3ccccc3c12
12,215 to 217,COC(=O)c1nc(-c2ccc(Cl)c(OC)c2F)nc(O)c1Cl
13,79 to 82,Cc1ccc(N2C=NC3CCCCC3C2=O)cc1 (stereo not drawn)
14,164,N#Cc1ccc2nc(N[C@@H]3CCc4ccccc43)ccc2c1
15,182 to 183,O=C(O)Cc1cc(C2CC2)ccc1Nc1ccc(-c2ccc(F)cc2)cc1F
16,133,COC(=O)c1cc(OC)c(OC)cc1C1=NCCc2ccccc21
17,148 to 149,O=C(c1ccc(Cl)cc1)c1cccc2cc[nH]c12
18,77,CC(C)(C)OC(=O)NCc1cc([N+](=O)[O-])ccc1Cl
19,> 255,COc1ccc2c(c1)sc1nc(N)nc(=Nc3ccc(O)cc3)n12
20,175 to 176,Cc1sc(N2C(=O)OCC2(C)C)nc1-c1ccc(Br)cc1
21,200 to 201,CCOc1c(C#N)cnc2c(NC(=O)c3c(Cl)cccc3Cl)cccc12
22,171 to 172,CCOP(=O)(OCC)C(O)c1ccc(NC(=O)CCc2oc(-n3cnc4ccccc43)nc2-c2ccc(Cl)cc2)cc1 (stereo not drawn)
23,192,CCC(C)(C)Nc1c(NCc2ccccn2)c(=O)c1=O
24,53 to 56,CCC(=O)Nc1c([N+](=O)[O-])cnn1-c1ncc(Cl)cc1Cl
25,116,CCCCNc1nc2cc(C)nn2c2ccncc12
26,172 to 178,CS(=O)(=O)Nc1ccc([N+](=O)[O-])cc1C(=O)c1ccc(F)cc1F

row,melting point [°C],Compound
1,97.5 to 98.5,CCCC(NC=O)C1(c2ccc(Cl)cc2)CCC1 (stereo not drawn)
2,243 to 245,NC(=O)CC[C@H]1CN(c2ccc(C(=O)c3cnc4ccc(C(F)(F)F)cn34)cc2)C(=O)O1
3,196 to 199,O=C(O)Cc1c(Cl)nc(-c2ccccc2)n1Cc1ccc(O)cc1
4,172 to 173,COc1ccc2nc(N)nc(C3CCN(C(=O)c4ccccc4)CC3)c2c1
5,369,Cc1ccc(-n2nc3c4cc(Br)ccc4[nH]c(=O)n3c2=O)cc1
6,134 to 136,Clc1ccc(CCC(Cn2ccnc2)Sc2cccc(Cl)c2Cl)cc1 (stereo not drawn)
7,154,CC(C)n1cnc2c(Nc3ccc(F)cc3)nc(Cl)nc21
8,165 to 168,COc1cc(N)c(Cl)cc1C(=O)NCC1CCN(CCCCNC(=O)c2ccccc2)CC1
9,208 to 213,Cc1ccc(N2C=NC(=O)C23CCN(Cc2ccccc2)CC3)cc1
10,141,Cc1nc2c(OCc3ccccc3)cccn2c(=O)c1CCCl
11,206 to 207,CCCn1nc2c(N)nc3ccccc3c2c1CCNC(=O)NCC
12,105 to 107,Cn1c(Cc2ccccc2)noc1=O
13,45 to 47,CCCCC1=Nc2sccc2C(=CN)N1CCC
14,295 to 298,CN(C)c1nc2n(n1)CC1=CSC(=O)C1=N2
15,184,CCOC(=O)Cn1c2ccc(Cl)ccc-2c(C(C)=O)c1=O
16,241 to 242,O=C(Nc1cccnc1)N1CCc2cc(-c3ccccc3)ccc21
17,166 to 169,Cc1nc2c(N)nc3ccccc3c2n1CCC(=O)N1CCOCC1
18,104 to 106,COc1cc(Nc2c(C#N)cnc3cc(-c4cccc(CN5CCN(C)CC5)c4)ccc23)c(Cl)cc1Cl
19,138 to 139,CCOC(=O)c1c(Cn2cnnc2)nc2sc(C)c(C)c2c1-c1ccc(Cl)cc1
20,228 to 230,CCc1nc2cccc(C)c2c(=O)n1C1CCC(=O)NC1=O (stereo not drawn)
21,56,Oc1cc(Cl)ccc1Br
22,130 to 132,FC(F)(F)c1cc(Cl)c(-n2cnc(I)n2)c(Cl)c1
23,204 to 205,N#Cc1cccc(NC(=O)Nc2ccc(-n3nc(C(F)(F)F)cc3C(F)(F)F)cc2)c1
24,120 to 123,CSC1C(=O)Nc2ccc(Oc3ccccc3Cl)cc21 (stereo not drawn)
25,59 to 61,CCOC(=O)/C=C/c1ccc(OC(C)=O)c(Cl)c1
26,102 to 104,CN(C)S(=O)(=O)c1ccc(C(F)(F)F)cc1[N+](=O)[O-]
